Test: Evaluation of conversion rate to active form in buffer solution (Experimental Example 1)
Format: physicochemical
Details: for Efficiency of conversion to Alvocidib: buffer solution; for Efficiency of conversion to Alvocidib / Production rate of Alvocidib / Residual rate: 37° C.; for Production rate of Alvocidib / Residual rate: 25 umol/L in buffer solution; for Stability in buffer solution at pH 5: pH 5, 37° C., up to 2 or 3 hours; for Conversion to Alvocidib at pH 7.4: pH 7.4, 37° C., up to 3 hours
Summary of the method: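 Stability across pH: 25 umol/L, 37° C, 50 mM citrate/phosphate, pH 5.0–7.4. Sampling at 0, 0.5, 1, 2, 3 h; HPLC determined loss of compound and Alvocidib generated.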

CCCN(CC1CCCCN1)C(=O)Oc1cc(O)c2c(=O)cc(-c3ccccc3Cl)oc2c1[C@H]1CCN(C)C[C@H]1O (stereo partly drawn) [Example 9, 2-(2-chlorophenyl)-5-hydroxy-8-[(3S,4R)-3-hydroxy-1-methylpiperidin-4-yl]-4-oxo-4H-1-benzopyran-7-yl [(piperidin-2-yl)methyl]propylcarbamate]
Efficiency of conversion to Alvocidib: higher efficiency | Production rate of Alvocidib (pH5.0, 0 hr): 1.4% | Residual rate (pH5.0, 0 hr): 96.2% | Stability in buffer solution at pH 5: stable | Production rate of Alvocidib (pH5.0, 0.5 hr): 1.7% | Residual rate (pH5.0, 0.5 hr): 95.9% | Production rate of Alvocidib (pH5.0, 1 hr): 2.1% | Residual rate (pH5.0, 1 hr): 95.6% | Production rate of Alvocidib (pH5.0, 2 hr): 2.8% | Residual rate (pH5.0, 2 hr): 94.9% | Production rate of Alvocidib (pH5.0, 3 hr): 3.6% | Residual rate (pH5.0, 3 hr): 94.0% | Production rate of Alvocidib (pH5.5, 0 hr): 1.4% | Residual rate (pH5.5, 0 hr): 96.2% | Production rate of Alvocidib (pH5.5, 0.5 hr): 2.4% | Residual rate (pH5.5, 0.5 hr): 95.2% | Production rate of Alvocidib (pH5.5, 1 hr): 3.4% | Residual rate (pH5.5, 1 hr): 94.4% | Production rate of Alvocidib (pH5.5, 2 hr): 5.2% | Residual rate (pH5.5, 2 hr): 92.5% | Production rate of Alvocidib (pH5.5, 3 hr): 7.2% | Residual rate (pH5.5, 3 hr): 90.5% | Production rate of Alvocidib (pH6.0, 0 hr): 1.5% | Residual rate (pH6.0, 0 hr): 96.2% | Production rate of Alvocidib (pH6.0, 0.5 hr): 4.9% | Residual rate (pH6.0, 0.5 hr): 92.9% | Production rate of Alvocidib (pH6.0, 1 hr): 8.2% | Residual rate (pH6.0, 1 hr): 89.5% | Production rate of Alvocidib (pH6.0, 2 hr): 14.4% | Residual rate (pH6.0, 2 hr): 83.0% | Production rate of Alvocidib (pH6.0, 3 hr): 20.8% | Residual rate (pH6.0, 3 hr): 76.6% | Production rate of Alvocidib (pH6.5, 0 hr): 1.7% | Residual rate (pH6.5, 0 hr): 95.9% | Production rate of Alvocidib (pH6.5, 0.5 hr): 11.2% | Residual rate (pH6.5, 0.5 hr): 86.4% | Production rate of Alvocidib (pH6.5, 1 hr): 20.2% | Residual rate (pH6.5, 1 hr): 77.3% | Production rate of Alvocidib (pH6.5, 2 hr): 35.4% | Residual rate (pH6.5, 2 hr): 61.9% | Production rate of Alvocidib (pH6.5, 3 hr): 49.0% | Residual rate (pH6.5, 3 hr): 48.4% | Production rate of Alvocidib (pH7.0, 0 hr): 2.2% | Residual rate (pH7.0, 0 hr): 95.4% | Production rate of Alvocidib (pH7.0, 0.5 hr): 24.1% | Residual rate (pH7.0, 0.5 hr): 73.1% | Production rate of Alvocidib (pH7.0, 1 hr): 42.0% | Residual rate (pH7.0, 1 hr): 55.1% | Production rate of Alvocidib (pH7.0, 2 hr): 66.1% | Residual rate (pH7.0, 2 hr): 31.0% | Production rate of Alvocidib (pH7.0, 3 hr): 81.0% | Residual rate (pH7.0, 3 hr): 16.7% | Production rate of Alvocidib (pH7.4, 0 hr): 3.4% | Residual rate (pH7.4, 0 hr): 94.3% | Conversion to Alvocidib at pH 7.4: rapidly converted to Alvocidib | Production rate of Alvocidib (pH7.4, 0.5 hr): 48.7% | Residual rate (pH7.4, 0.5 hr): 48.7% | Production rate of Alvocidib (pH7.4, 1 hr): 73.6% | Residual rate (pH7.4, 1 hr): 23.7% | Production rate of Alvocidib (pH7.4, 2 hr): 92.4% | Residual rate (pH7.4, 2 hr): 5.6% | Production rate of Alvocidib (pH7.4, 3 hr): 96.7% | Residual rate (pH7.4, 3 hr): 1.1%

CC(C)N(CC1CCCCN1)C(=O)Oc1cc(O)c2c(=O)cc(-c3ccccc3Cl)oc2c1[C@H]1CCN(C)C[C@H]1O (stereo partly drawn) [Example 10, 2-(2-chlorophenyl)-5-hydroxy-8-[(3S,4R)-3-hydroxy-1-methylpiperidin-4-yl]-4-oxo-4H-1-benzopyran-7-yl [(piperidin-2-yl)methyl]propan-2-ylcarbamate]
Efficiency of conversion to Alvocidib: higher efficiency | Production rate of Alvocidib (pH5.0, 0 hr): 1.6% | Residual rate (pH5.0, 0 hr): 90.6% | Stability in buffer solution at pH 5: stable | Production rate of Alvocidib (pH5.0, 0.5 hr): 2.1% | Residual rate (pH5.0, 0.5 hr): 90.4% | Production rate of Alvocidib (pH5.0, 1 hr): 2.5% | Residual rate (pH5.0, 1 hr): 90.8% | Production rate of Alvocidib (pH5.0, 2 hr): 3.1% | Residual rate (pH5.0, 2 hr): 90.1% | Production rate of Alvocidib (pH5.0, 3 hr): 3.9% | Residual rate (pH5.0, 3 hr): 89.5% | Production rate of Alvocidib (pH5.5, 0 hr): 1.6% | Residual rate (pH5.5, 0 hr): 90.7% | Production rate of Alvocidib (pH5.5, 0.5 hr): 2.7% | Residual rate (pH5.5, 0.5 hr): 90.4% | Production rate of Alvocidib (pH5.5, 1 hr): 3.6% | Residual rate (pH5.5, 1 hr): 89.5% | Production rate of Alvocidib (pH5.5, 2 hr): 5.4% | Residual rate (pH5.5, 2 hr): 87.9% | Production rate of Alvocidib (pH5.5, 3 hr): 7.2% | Residual rate (pH5.5, 3 hr): 86.3% | Production rate of Alvocidib (pH6.0, 0 hr): 1.7% | Residual rate (pH6.0, 0 hr): 90.7% | Production rate of Alvocidib (pH6.0, 0.5 hr): 4.9% | Residual rate (pH6.0, 0.5 hr): 88.2% | Production rate of Alvocidib (pH6.0, 1 hr): 8.1% | Residual rate (pH6.0, 1 hr): 85.2% | Production rate of Alvocidib (pH6.0, 2 hr): 14.1% | Residual rate (pH6.0, 2 hr): 79.4% | Production rate of Alvocidib (pH6.0, 3 hr): 19.8% | Residual rate (pH6.0, 3 hr): 74.1% | Production rate of Alvocidib (pH6.5, 0 hr): 1.9% | Residual rate (pH6.5, 0 hr): 91.3% | Production rate of Alvocidib (pH6.5, 0.5 hr): 10.8% | Residual rate (pH6.5, 0.5 hr): 82.4% | Production rate of Alvocidib (pH6.5, 1 hr): 19.4% | Residual rate (pH6.5, 1 hr): 73.9% | Production rate of Alvocidib (pH6.5, 2 hr): 34.6% | Residual rate (pH6.5, 2 hr): 59.6% | Production rate of Alvocidib (pH6.5, 3 hr): 46.2% | Residual rate (pH6.5, 3 hr): 47.1% | Production rate of Alvocidib (pH7.0, 0 hr): 2.2% | Residual rate (pH7.0, 0 hr): 90.7% | Production rate of Alvocidib (pH7.0, 0.5 hr): 22.8% | Residual rate (pH7.0, 0.5 hr): 70.0% | Production rate of Alvocidib (pH7.0, 1 hr): 40.0% | Residual rate (pH7.0, 1 hr): 52.8% | Production rate of Alvocidib (pH7.0, 2 hr): 63.6% | Residual rate (pH7.0, 2 hr): 29.6% | Production rate of Alvocidib (pH7.0, 3 hr): 76.4% | Residual rate (pH7.0, 3 hr): 0.8% | Production rate of Alvocidib (pH7.4, 0 hr): 3.1% | Residual rate (pH7.4, 0 hr): 89.9% | Conversion to Alvocidib at pH 7.4: rapidly converted to Alvocidib | Production rate of Alvocidib (pH7.4, 0.5 hr): 46.1% | Residual rate (pH7.4, 0.5 hr): 46.5% | Production rate of Alvocidib (pH7.4, 1 hr): 71.5% | Residual rate (pH7.4, 1 hr): 22.6% | Production rate of Alvocidib (pH7.4, 2 hr): 87.2% | Residual rate (pH7.4, 2 hr): 0.9% | Production rate of Alvocidib (pH7.4, 3 hr): 91.6% | Residual rate (pH7.4, 3 hr): 0.8%
